What all share (experiment): HPLC-MS kinetic assay
Assay type in all cases: biochemical, Aralia elata
Holding throughout (conditions): 0.5 mM UDP-Glc, 50 mM Tris-HCl pH 7.0, 30 °C, 1 µM enzyme

The test system of one assay is T1, AeUGT73CB3.
T1 construct: pGEX-4T-1, GST-tagged, E. coli BL21 (DE3), GSTrap purified; methods print AeUGT74CB3
The procedure:
HPLC-MS kinetic assay on AeUGT73CB3 | The kinetic parameters of AeUGT73CB3 for calenduloside E and chikusetsusaponin IVa as substrates were analyzed.

The next assay deals with T2, AeUGT74AG6.
T2 construct: pGEX-4T-1, GST-tagged, E. coli BL21 (DE3), GSTrap purified

Another assay concerns T3, AeUGT73AD2.
T3 construct: pGEX-4T-1, GST-tagged, E. coli BL21 (DE3), GSTrap purified

SMILES strings stand for the structures.

For orientation: Km means the substrate concentration at which the rate is half of its maximum. On to `CC1(C)CC[C@]2(C(=O)O[C@@H]3O[C@H](CO)[C@@H](O)[C@H](O)[C@H]3O)CC[C@]3(C)C(=CC[C@@H]4[C@@]5(C)CC[C@H](O[C@@H]6O[C@H](C(=O)O)[C@@H](O)[C@H](O)[C@H]6O)C(C)(C)[C@@H]5CC[C@]43C)[C@@H]2C1` [compound 9, chikusetsusaponin IVa], for which, in the assay on AeUGT73CB3, the Km turned out to be 640.2 ± 4.6 µM.

With `CC1(C)CC[C@]2(C(=O)O)CC[C@]3(C)C(=CC[C@@H]4[C@@]5(C)CC[C@H](O[C@@H]6O[C@H](C(=O)O)[C@@H](O)[C@H](O)[C@H]6O[C@@H]6O[C@H](CO)[C@@H](O)[C@H](O)[C@H]6O)C(C)(C)[C@@H]5CC[C@]43C)[C@@H]2C1` [compound 8, zingibroside R1], in the assay on AeUGT74AG6, the Km was found to be 48.8 ± 3.04 µM.

In the case of `CC1(C)CC[C@]2(C(=O)O)CC[C@]3(C)C(=CC[C@@H]4[C@@]5(C)CC[C@H](O[C@@H]6O[C@H](C(=O)O)[C@@H](O)[C@H](O)[C@H]6O)C(C)(C)[C@@H]5CC[C@]43C)[C@@H]2C1` [compound 7, calenduloside E], the Km amounted to 150 ± 7.7 µM in the assay with AeUGT74AG6 and 51.8 ± 2.1 µM with AeUGT73CB3.

`CC1(C)CC[C@]2(C(=O)O)CC[C@]3(C)C(=CC[C@@H]4[C@@]5(C)CC[C@H](O)C(C)(C)[C@@H]5CC[C@]43C)[C@@H]2C1` [compound 2, oleanolic acid]: the Km was found to be 40.3 ± 2.49 µM with AeUGT74AG6 and 43 ± 9.17 µM with AeUGT73AD2.

The values above are taken from publication PMC9038795, “Deletion and tandem duplications of biosynthetic genes drive the diversity of triterpenoids in Aralia elata” (Nature Communications, 2022).
